Experimental findings from ChEMBL document CHEMBL4251595, “Green approach for the synthesis of thiophenyl pyrazoles and isoxazoles by adopting 1,3-dipolar cycloaddition methodology and their antimicrobial activity” (2018) are described below.

The source made the active and inactive calls. The calls are words filed in the database; no cut-off is given here.

What all share (format): functional
Assay [1] relates to Penicillium chrysogenum. Nature of the assay: Antifungal activity against Penicillium chrysogenum assessed as zone of inhibition at 75 ug/well after 48 hrs by agar well diffusion method. To be noted: for zone of inhibition at 75 µg/disc: read-out: DIZ. Background: In agar diffusion tests the substance spreads into inoculated agar from a disc or well.
For assay [2], the system named is Staphylococcus aureus. Nature of the assay: Antimicrobial activity against Staphylococcus aureus assessed as zone of inhibition at 50 ug/well after 24 hrs by agar well diffusion method. The note with it: for zone of inhibition at 50 µg/disc: read-out: DIZ.
The test system of assay [3] is Aspergillus niger. Put plainly: Antifungal activity against Aspergillus niger assessed as zone of inhibition at 100 ug/well after 48 hrs by agar well diffusion method. To be noted: for zone of inhibition at 100 µg/disc: read-out: DIZ.
Assay [4] has as its system Staphylococcus aureus. Nature of the assay: Antimicrobial activity against Staphylococcus aureus assessed as zone of inhibition at 75 ug/well after 24 hrs by agar well diffusion method. The note with it: for zone of inhibition at 75 µg/disc: read-out: DIZ.
For assay [5], the system named is Penicillium chrysogenum. Put plainly: Antifungal activity against Penicillium chrysogenum assessed as zone of inhibition at 100 ug/well after 48 hrs by agar well diffusion method. The note with it: for zone of inhibition at 100 µg/disc: read-out: DIZ.
Assay [6] deals with Aspergillus niger. Put plainly: Antifungal activity against Aspergillus niger assessed as zone of inhibition at 50 ug/well after 48 hrs by agar well diffusion method. To be noted: for zone of inhibition at 50 µg/disc: read-out: DIZ.
For assay [7], the system named is Klebsiella pneumoniae. Put plainly: Antimicrobial activity against Klebsiella pneumoniae assessed as zone of inhibition at 100 ug/well after 24 hrs by agar well diffusion method. To be noted: for zone of inhibition at 100 µg/disc: read-out: DIZ.
In assay [8] the test system is Bacillus subtilis. Nature of the assay: Antimicrobial activity against Bacillus subtilis assessed as zone of inhibition at 50 ug/well after 24 hrs by agar well diffusion method. To be noted: for zone of inhibition at 50 µg/disc: read-out: DIZ.
Assay [9] has as its system Staphylococcus aureus. Put plainly: Antimicrobial activity against Staphylococcus aureus assessed as zone of inhibition at 100 ug/well after 24 hrs by agar well diffusion method. To be noted: for zone of inhibition at 100 µg/disc: read-out: DIZ.
The test system of assay [10] is Pseudomonas aeruginosa. Put plainly: Antimicrobial activity against Pseudomonas aeruginosa assessed as zone of inhibition at 50 ug/well after 24 hrs by agar well diffusion method. To be noted: for zone of inhibition at 50 µg/disc: read-out: DIZ.
The subject of assay [11] is Aspergillus niger. Nature of the assay: Antifungal activity against Aspergillus niger assessed as zone of inhibition at 75 ug/well after 48 hrs by agar well diffusion method. The note with it: for zone of inhibition at 75 µg/disc: read-out: DIZ.
For assay [12], the system named is Pseudomonas aeruginosa. Nature of the assay: Antimicrobial activity against Pseudomonas aeruginosa assessed as zone of inhibition at 100 ug/well after 24 hrs by agar well diffusion method. To be noted: for zone of inhibition at 100 µg/disc: read-out: DIZ.
The test system of assay [13] is Bacillus subtilis. Nature of the assay: Antimicrobial activity against Bacillus subtilis assessed as zone of inhibition at 100 ug/well after 24 hrs by agar well diffusion method. The note with it: for zone of inhibition at 100 µg/disc: read-out: DIZ.
The subject of assay [14] is Bacillus subtilis. Nature of the assay: Antimicrobial activity against Bacillus subtilis assessed as zone of inhibition at 75 ug/well after 24 hrs by agar well diffusion method. To be noted: for zone of inhibition at 75 µg/disc: read-out: DIZ.
In assay [15] the test system is Klebsiella pneumoniae. Nature of the assay: Antimicrobial activity against Klebsiella pneumoniae assessed as zone of inhibition at 75 ug/well after 24 hrs by agar well diffusion method. The note with it: for zone of inhibition at 75 µg/disc: read-out: DIZ.
The subject of assay [16] is Pseudomonas aeruginosa. Nature of the assay: Antimicrobial activity against Pseudomonas aeruginosa assessed as zone of inhibition at 75 ug/well after 24 hrs by agar well diffusion method. To be noted: for zone of inhibition at 75 µg/disc: read-out: DIZ.
Assay [17] has as its system Klebsiella pneumoniae. Nature of the assay: Antimicrobial activity against Klebsiella pneumoniae assessed as zone of inhibition at 50 ug/well after 24 hrs by agar well diffusion method. To be noted: for zone of inhibition at 50 µg/disc: read-out: DIZ.
Assay [18] deals with Penicillium chrysogenum. Put plainly: Antifungal activity against Penicillium chrysogenum assessed as zone of inhibition at 50 ug/well after 48 hrs by agar well diffusion method. The note with it: for zone of inhibition at 50 µg/disc: read-out: DIZ.

For the molecule `Cc1ccc(C2ON=C(c3ccccc3)C2S(=O)(=O)NC(=O)c2cccs2)cc1` (centres undefined), the “diameter of the inhibition zone (DIZ)” value with Penicillium chrysogenum [1], in the assay with Staphylococcus aureus [2], in the assay with Aspergillus niger [3], in the assay on Staphylococcus aureus [4], with Penicillium chrysogenum [5] and in the assay on Aspergillus niger [6] was “inactive” each time. Moreover, the “diameter of the inhibition zone (DIZ)” value in the assay with Klebsiella pneumoniae [7], with Bacillus subtilis [8], with Staphylococcus aureus [9], in the assay with Pseudomonas aeruginosa [10], with Aspergillus niger [11] and with Pseudomonas aeruginosa [12] was “inactive” in each case. The “diameter of the inhibition zone (DIZ)” value in the assay on Bacillus subtilis [13], with Bacillus subtilis [14], in the assay on Klebsiella pneumoniae [15], with Pseudomonas aeruginosa [16], with Klebsiella pneumoniae [17] and in the assay on Penicillium chrysogenum [18] was “inactive” throughout.
Turning to `Cc1ccc(-c2onc(-c3ccccc3)c2S(=O)(=O)NC(=O)c2cccs2)cc1`, the zone of inhibition at 75 µg/disc in the assay with Penicillium chrysogenum [1] turned out to be 12 mm; with Staphylococcus aureus [4] it was 14 mm; with Aspergillus niger [11], 15 mm; with Bacillus subtilis [14] it was 20 mm; in the assay on Klebsiella pneumoniae [15] it was 20 mm; with Pseudomonas aeruginosa [16], 9 mm. Besides, the zone of inhibition at 50 µg/disc with Staphylococcus aureus [2] was determined as 12 mm; in the assay on Aspergillus niger [6], 13 mm; with Bacillus subtilis [8], 18 mm; in the assay on Klebsiella pneumoniae [17], 16 mm; in the assay on Penicillium chrysogenum [18], 10 mm. The zone of inhibition at 100 µg/disc with Aspergillus niger [3] is 18 mm; in the assay with Penicillium chrysogenum [5], 16 mm; in the assay with Klebsiella pneumoniae [7], 21 mm; in the assay on Staphylococcus aureus [9], 16 mm; in the assay on Pseudomonas aeruginosa [12], 12 mm; in the assay on Bacillus subtilis [13] it was 23 mm. Also, the “diameter of the inhibition zone (DIZ)” value in the assay with Pseudomonas aeruginosa [10] is “inactive”.
Regarding `O=C(NS(=O)(=O)/C=C/c1ccccc1)c1cccs1`, the zone of inhibition at 75 µg/disc was 8 mm in the assay with Penicillium chrysogenum [1]; 16 mm in the assay on Staphylococcus aureus [4]; 13 mm with Aspergillus niger [11]; 21 mm in the assay on Bacillus subtilis [14]; 18 mm in the assay with Klebsiella pneumoniae [15]; 9 mm in the assay with Pseudomonas aeruginosa [16]. Also, the zone of inhibition at 50 µg/disc in the assay with Staphylococcus aureus [2] amounted to 12 mm; in the assay on Aspergillus niger [6] it was 10 mm; in the assay on Bacillus subtilis [8], 18 mm; with Pseudomonas aeruginosa [10] it was 7 mm; in the assay on Klebsiella pneumoniae [17], 15 mm. Besides, the zone of inhibition at 100 µg/disc turned out to be 15 mm with Aspergillus niger [3]; 11 mm with Penicillium chrysogenum [5]; 19 mm with Klebsiella pneumoniae [7]; 17 mm in the assay on Staphylococcus aureus [9]; 10 mm with Pseudomonas aeruginosa [12]; 23 mm with Bacillus subtilis [13]. Moreover, the “diameter of the inhibition zone (DIZ)” value in the assay on Penicillium chrysogenum [18] is “inactive”.
As for `Cc1ccc(/C=C/S(=O)(=O)NC(=O)c2ccc(Cl)s2)cc1`, the zone of inhibition at 75 µg/disc with Penicillium chrysogenum [1] is 10 mm; with Staphylococcus aureus [4], 13 mm; with Aspergillus niger [11], 11 mm; with Bacillus subtilis [14] it was 19 mm; in the assay on Klebsiella pneumoniae [15] it was 15 mm; in the assay with Pseudomonas aeruginosa [16], 11 mm. Also, the zone of inhibition at 50 µg/disc with Staphylococcus aureus [2] was 10 mm; in the assay on Aspergillus niger [6] it was 9 mm; with Bacillus subtilis [8], 17 mm; in the assay on Klebsiella pneumoniae [17], 14 mm. For the same molecule, the zone of inhibition at 100 µg/disc came to 14 mm with Aspergillus niger [3]; 12 mm in the assay with Penicillium chrysogenum [5]; 17 mm in the assay with Klebsiella pneumoniae [7]; 14 mm in the assay on Staphylococcus aureus [9]; 12 mm in the assay with Pseudomonas aeruginosa [12]; 22 mm in the assay on Bacillus subtilis [13]. Also, the “diameter of the inhibition zone (DIZ)” value with Pseudomonas aeruginosa [10] and in the assay with Penicillium chrysogenum [18] was “inactive” in each case.
On to `O=C(NS(=O)(=O)/C=C/c1ccccc1)c1ccc(Cl)s1`, for which the zone of inhibition at 75 µg/disc in the assay with Penicillium chrysogenum [1] is 13 mm; in the assay on Staphylococcus aureus [4], 19 mm; with Aspergillus niger [11], 17 mm; in the assay on Bacillus subtilis [14] it was 24 mm; in the assay on Klebsiella pneumoniae [15], 22 mm; in the assay on Pseudomonas aeruginosa [16], 14 mm. Besides, the zone of inhibition at 50 µg/disc with Staphylococcus aureus [2] is 16 mm; in the assay with Aspergillus niger [6], 15 mm; with Bacillus subtilis [8], 22 mm; in the assay with Pseudomonas aeruginosa [10], 12 mm; with Klebsiella pneumoniae [17], 19 mm; with Penicillium chrysogenum [18] it was 10 mm. Further, the zone of inhibition at 100 µg/disc with Aspergillus niger [3] stood at 21 mm; with Penicillium chrysogenum [5], 17 mm; in the assay with Klebsiella pneumoniae [7], 25 mm; in the assay on Staphylococcus aureus [9] it was 21 mm; with Pseudomonas aeruginosa [12], 17 mm; in the assay with Bacillus subtilis [13] it was 27 mm.
As for `O=C(NS(=O)(=O)C1C(c2ccccc2)=NOC1c1ccccc1)c1ccc(Cl)s1` (centres undefined), the “diameter of the inhibition zone (DIZ)” value in the assay on Penicillium chrysogenum [1], with Staphylococcus aureus [2], in the assay on Staphylococcus aureus [4], in the assay on Aspergillus niger [6], with Pseudomonas aeruginosa [10] and in the assay on Pseudomonas aeruginosa [12] was “inactive” throughout. Further, the “diameter of the inhibition zone (DIZ)” value in the assay on Pseudomonas aeruginosa [16] and in the assay on Penicillium chrysogenum [18] was “inactive” in each case. For the same molecule, the zone of inhibition at 100 µg/disc is 12 mm in the assay on Aspergillus niger [3]; 7 mm in the assay on Penicillium chrysogenum [5]; 12 mm with Klebsiella pneumoniae [7]; 8 mm in the assay with Staphylococcus aureus [9]; 16 mm in the assay with Bacillus subtilis [13]. Further, the zone of inhibition at 50 µg/disc in the assay with Bacillus subtilis [8] was 10 mm; in the assay with Klebsiella pneumoniae [17], 8 mm. Further, the zone of inhibition at 75 µg/disc in the assay with Aspergillus niger [11] is 9 mm; in the assay on Bacillus subtilis [14], 12 mm; in the assay on Klebsiella pneumoniae [15], 10 mm.
Take `O=C(NS(=O)(=O)c1c(-c2ccccc2)nn(-c2ccccc2)c1-c1ccccc1)c1ccc(Cl)s1`: the zone of inhibition at 75 µg/disc in the assay with Penicillium chrysogenum [1] amounted to 15 mm; in the assay on Staphylococcus aureus [4], 21 mm; in the assay on Aspergillus niger [11], 21 mm; with Bacillus subtilis [14] it was 28 mm; in the assay on Klebsiella pneumoniae [15], 25 mm; in the assay on Pseudomonas aeruginosa [16] it was 16 mm. In addition, the zone of inhibition at 50 µg/disc in the assay on Staphylococcus aureus [2] was 19 mm; in the assay with Aspergillus niger [6], 18 mm; with Bacillus subtilis [8] it was 25 mm; in the assay with Pseudomonas aeruginosa [10], 14 mm; in the assay with Klebsiella pneumoniae [17], 23 mm; in the assay with Penicillium chrysogenum [18] it was 13 mm. The zone of inhibition at 100 µg/disc was found to be 25 mm with Aspergillus niger [3]; 17 mm in the assay with Penicillium chrysogenum [5]; 27 mm in the assay on Klebsiella pneumoniae [7]; 24 mm in the assay with Staphylococcus aureus [9]; 19 mm in the assay on Pseudomonas aeruginosa [12]; 32 mm in the assay with Bacillus subtilis [13].
As for `Cc1ccc(C2ON=C(c3ccccc3)C2S(=O)(=O)NC(=O)c2ccc(Cl)s2)cc1` (centres undefined), the “diameter of the inhibition zone (DIZ)” value in the assay with Penicillium chrysogenum [1], with Staphylococcus aureus [2], in the assay with Aspergillus niger [3], with Staphylococcus aureus [4], with Penicillium chrysogenum [5] and in the assay on Aspergillus niger [6] was “inactive” throughout. The “diameter of the inhibition zone (DIZ)” value in the assay on Klebsiella pneumoniae [7], with Bacillus subtilis [8], with Staphylococcus aureus [9], in the assay with Pseudomonas aeruginosa [10], with Aspergillus niger [11] and in the assay with Pseudomonas aeruginosa [12] was “inactive” in each case. Also, the “diameter of the inhibition zone (DIZ)” value in the assay on Bacillus subtilis [13], in the assay on Bacillus subtilis [14], in the assay on Klebsiella pneumoniae [15], in the assay with Pseudomonas aeruginosa [16], with Klebsiella pneumoniae [17] and with Penicillium chrysogenum [18] was “inactive” each time.
